According to paper PMC10121968, “Fosgonimeton, a Novel Positive Modulator of the HGF/MET System, Promotes Neurotrophic and Procognitive Effects in Models of Dementia” (Neurotherapeutics, 2022):
Non-standard residues stand in square brackets, D forms with d. Residues, ends and D or L forms follow the SMILES beside them. *: point of attachment. Hexanoyl = CCCCCC(=O)*; Ahx = NCCCCCC(=O)O

How the values were obtained:
[1] = tested on: TNF-α; test: TNF-α release in LPS-challenged THP-1 macrophages (ELISA); assay type: cell-based, human; conditions: 1 µM, 20 min pretreatment, LPS 50 ng/mL 24 h, vs LPS + vehicle
Method: To determine the effect of fosgo-AM on LPS-induced cytokine release, we sought to determine the levels of interleukin-1β (IL-1β), interleukin-6 (IL-6), and tumor necrosis factor-α (TNF-α) in LPS-challenged THP-1–differentiated macrophages in the presence and absence of fosgo-AM. THP-1 monocytes were grown at 37 °C, 5% CO2 in Roswell Park Memorial Institute (RPMI) medium + 10% FBS until approximately 80% confluent. Cells were seeded in polystyrene-treated 96-well cell culture plates at approximately 50,000 cells/well in 100-µL complete media. 100 µL Phorbol myristate acetate was then added to each well for a final concentration of 100 ng/mL. The plate was then incubated for 3 days at 37 °C, 5% CO2 to prime the monocytes into macrophages. […] For cytokine quantification, cell culture supernatant was assayed by HTRF kits to assess levels of IL-1β (Human IL-1β kit, #62HIL1BPEG, Cisbio, Codolet, France) and IL-6 (Human IL-6 kit, 62HIL06PET, Cisbio, Codolet, France), and by ELISA (Human TNF-α ELISA kit, KHC3011, ThermoFisher, Waltham, Massachusetts) to determine the levels of TNF-α. […] Fluorescence emission at 2 different wavelengths (665 nm and 620 nm) were measured on an Envision plate reader (PerkinElmer, Waltham, Massachusetts), and HTRF ratio of the acceptor and donor emission signals for each well was calculated as follows: HTRF ratio = (665 nm/620 nm) × 10,000. […]

[2] = tested on: AKT (Ser473); test: Phospho-AKT HTRF assay in HEK293 cells; assay type: cell-based, human; conditions: HEK293, subthreshold HGF 10 ng/mL + fosgo-AM 0.1 µM, vs HGF alone
Text: To determine phosphoactivation status of the intracellular signaling molecules ERK (Thr202/Tyr204) or AKT (Ser473), we used homogenous time-resolved fluorescence (HTRF) kits to assess phosphorylation status based on the energy transfer between donor and acceptor phospho-ERK (pERK) or phospho-AKT (pAKT) antibodies. HTRF kit processing for pERK (Phospho-ERK [Thr202/Tyr204] cellular Advanced kit, #64AERPEG, Cisbio, Codolet, France) and pAKT (Phospho-AKT [Ser473] cellular kit, #64AKSPEG, Cisbio, Codolet, France) were carried out per manufacturer instructions. In brief, HEK293 cells were grown at 37 °C, 5% CO2 in DMEM + 10% FBS until approximately 80% confluent. Cells were seeded in polystyrene-treated 96-well cell culture plates at approximately 50,000 cells/well and cultured overnight in 50 µL serum-free growth media. […] Fluorescence emission at 2 different wavelengths (665 nm and 620 nm) were measured on an Envision plate reader (PerkinElmer, Waltham, Massachusetts), and the HTRF ratio of the acceptor and donor emission signals for each well was calculated as follows: HTRF ratio = (665 nm/620 nm) × 10,000. […] Data were assessed for normality (Shapiro–Wilk) and homoscedasticity (Brown-Forsythe). Statistical significance was determined by one-way analysis of variance (ANOVA) with Tukey’s multiple comparison post-test. […]

CCCCCC(=O)N[C@@H](Cc1ccc(O)cc1)C(=O)N[C@H](C(=O)NCCCCCC(N)=O)[C@@H](C)CC [fosgo-AM] (Hexanoyl-Tyr-Ile-[Ahx]-NH2)
TNF-α release [1]: significant decrease
pAKT levels [2]: significant increase
